Several values for one entry are separate records, joined by “and”; a condition that tells them apart may be missing. Equal entries are not always repeated. ± gives the expanded uncertainty stated by the source.
Assays:
[1] = molar enthalpy of vaporization or sublimation; settings: Liquid, Calvet Calorimetry

Cc1ccc(-c2ccccc2)cc1 [4-methylbiphenyl]
Settings | Normal boiling temperature [°C]
Liquid, Ebulliometric method (Recirculating still) | 274.4 ± 0.2

CC(C)(C)c1ccc(-c2ccccc2)cc1 [4-(1,1-dimethylethyl)-1,1'-biphenyl]
Liquid, Ebulliometric method (Recirculating still)
Settings | vapor or sublimation pressure [kPa]
448.41 K | 2.117 ± 0.1
467.65 K | 4.346 ± 0.1
482.23 K | 7.152 ± 0.1
494.83 K | 10.66 ± 0.1
502.69 K | 13.5 ± 0.1
510.59 K | 16.96 ± 0.1
518.4 K | 21.07 ± 0.1
528.31 K | 27.41 ± 0.1
537.1 K | 34.27 ± 0.1
547.22 K | 43.86 ± 0.1
557.74 K | 56.03 ± 0.1
568.72 K | 71.52 ± 0.11
580.98 K | 92.61 ± 0.11
593.09 K | 118.1 ± 0.11

Settings | Normal boiling temperature [°C]
Liquid, Ebulliometric method (Recirculating still) | 312.24 ± 0.2

Cc1cccc(-c2ccccc2)c1 [3-methylbiphenyl]
Liquid, Transpiration method
Settings | vapor or sublimation pressure [kPa]
318.8 K | 0.00702 ± 0.0005
320.4 K | 0.00797 ± 0.00057
323.3 K | 0.01012 ± 0.00072
325.5 K | 0.01178 ± 0.00084
328.1 K | 0.01408 ± 0.001
330.3 K | 0.01692 ± 0.0012
333.1 K | 0.02024 ± 0.0014
336.1 K | 0.02586 ± 0.0018
338.5 K | 0.03025 ± 0.0021
340.4 K | 0.03425 ± 0.0024
343.2 K | 0.04154 ± 0.0029
346.4 K | 0.05071 ± 0.0036
348.5 K | 0.05569 ± 0.0039
350.8 K | 0.06543 ± 0.0046
353.7 K | 0.07738 ± 0.0055
356.2 K | 0.09688 ± 0.0069
358.3 K | 0.1068 ± 0.0075
360.8 K | 0.1231 ± 0.0087
363.6 K | 0.1459 ± 0.01
365.8 K | 0.1642 ± 0.012

Cc1ccccc1-c1ccccc1 [2-methylbiphenyl]
Liquid, Transpiration method
Settings | vapor or sublimation pressure [kPa]
301 K | 0.00376 ± 0.00027
303.5 K | 0.00477 ± 0.00034
305.9 K | 0.0056 ± 0.0004
308.4 K | 0.00692 ± 0.0005
310.9 K | 0.00851 ± 0.00061
313.4 K | 0.01043 ± 0.00075
315.9 K | 0.0128 ± 0.00091
318.4 K | 0.01527 ± 0.0011
320.8 K | 0.0183 ± 0.0013
323.3 K | 0.02232 ± 0.0016
325.8 K | 0.02641 ± 0.0019
328.3 K | 0.0314 ± 0.0022
330.7 K | 0.03763 ± 0.0027
333.2 K | 0.04446 ± 0.0032
335.7 K | 0.05183 ± 0.0037
338.1 K | 0.06106 ± 0.0043
340.6 K | 0.07203 ± 0.0051
343.1 K | 0.08401 ± 0.0059
345.6 K | 0.09811 ± 0.0069
348.1 K | 0.1141 ± 0.008

CC(C)(C)c1ccc(-c2ccc(C(C)(C)C)cc2)cc1 [4,4'-bis(1,1-dimethylethyl)-1,1'-biphenyl]
Crystal, Transpiration method
Settings | vapor or sublimation pressure [kPa]
335.5 K | 7.9e-05 ± 6e-06
338.5 K | 0.00011 ± 8e-06
341.5 K | 0.000146 ± 1.1e-05
343.5 K | 0.000176 ± 1.3e-05
348.2 K | 0.000291 ± 2.1e-05
351.5 K | 0.000425 ± 3.1e-05
353.9 K | 0.000537 ± 4e-05
358.5 K | 0.000887 ± 6.4e-05
363.7 K | 0.001398 ± 0.0001
365.5 K | 0.001697 ± 0.00012
368.6 K | 0.002328 ± 0.00017
370.5 K | 0.002679 ± 0.00019
373.5 K | 0.003653 ± 0.00026
373.7 K | 0.003396 ± 0.00024
375.7 K | 0.004092 ± 0.0003
378.2 K | 0.005541 ± 0.0004
380.4 K | 0.006527 ± 0.00047
382.5 K | 0.007664 ± 0.00055
384.7 K | 0.009379 ± 0.00067

CC(C)c1cccc(-c2ccccc2)c1 [3-(1-Methylethyl)-1,1'-biphenyl]
Settings | Normal boiling temperature, Ebulliometric method (Recirculating still) [°C] | molar enthalpy, 323.15 K [kcal/mol] | molar enthalpy, 333.15 K [kcal/mol] | molar enthalpy, 343.15 K [kcal/mol] | molar enthalpy, 353.15 K [kcal/mol] | molar enthalpy, 363.15 K [kcal/mol] | molar enthalpy, 373.15 K [kcal/mol]
Liquid | 293.39 ± 0.2 | – | – | – | – | – | –
[1] | – | 17.8 ± 0.239 | 17.5 ± 0.263 | 17.3 ± 0.263 | 17.1 ± 0.239 | 16.8 ± 0.239 | 16.6 ± 0.239

Liquid
Settings | vapor or sublimation pressure
302.8 K, Transpiration method | 0.00045 ± 3e-05 kPa
303.3 K, Transpiration method | 0.00044 ± 3e-05 kPa
305.9 K, Transpiration method | 0.00061 ± 4e-05 kPa
307.8 K, Transpiration method | 0.0007 ± 5e-05 kPa
309.9 K, Transpiration method | 0.0009 ± 7e-05 kPa
312.9 K, Transpiration method | 0.00122 ± 9e-05 kPa
313.3 K, Transpiration method | 0.00116 ± 9e-05 kPa
315.9 K, Transpiration method | 0.00146 ± 0.00011 kPa
317.9 K, Transpiration method | 0.00187 ± 0.00014 kPa
319.9 K, Transpiration method | 0.00217 ± 0.00015 kPa
322.9 K, Transpiration method | 0.00265 ± 0.0002 kPa and 0.00276 ± 0.00023 kPa
323.3 K, Transpiration method | 0.0025 ± 0.00019 kPa
325.8 K, Transpiration method | 0.00378 ± 0.00027 kPa
327.8 K, Transpiration method | 0.00388 ± 0.00027 kPa
328 K, Transpiration method | 0.00408 ± 0.00029 kPa
329.8 K, Transpiration method | 0.00479 ± 0.00035 kPa
332.3 K, Transpiration method | 0.00644 ± 0.00046 kPa
332.8 K, Transpiration method | 0.0062 ± 0.00043 kPa
333.3 K, Transpiration method | 0.0064 ± 0.00046 kPa and 0.00674 ± 0.00048 kPa and 0.0065 ± 0.00047 kPa
333.4 K, Transpiration method | 0.00634 ± 0.00046 kPa and 0.00708 ± 0.00051 kPa
335.3 K, Transpiration method | 0.0078 ± 0.00057 kPa
335.8 K, Transpiration method | 0.00832 ± 0.00058 kPa
336.3 K, Transpiration method | 0.00811 ± 0.00059 kPa and 0.0082 ± 0.00059 kPa
337.3 K, Transpiration method | 0.00945 ± 0.00067 kPa
337.7 K, Transpiration method | 0.00887 ± 0.00062 kPa
338 K, Transpiration method | 0.00931 ± 0.00071 kPa
338.3 K, Transpiration method | 0.00975 ± 0.00074 kPa
340.3 K, Transpiration method | 0.01113 ± 0.00079 kPa
342.3 K, Transpiration method | 0.01244 ± 0.0009 kPa
343.1 K, Transpiration method | 0.01478 ± 0.0011 kPa and 0.01437 ± 0.001 kPa
343.3 K, Transpiration method | 0.01376 ± 0.00099 kPa and 0.01441 ± 0.001 kPa
345.3 K, Transpiration method | 0.01629 ± 0.0012 kPa and 0.01561 ± 0.0011 kPa
347.3 K, Transpiration method | 0.01952 ± 0.0014 kPa and 0.01755 ± 0.0012 kPa
348.3 K, Transpiration method | 0.01973 ± 0.0014 kPa and 0.02029 ± 0.0014 kPa and 0.02064 ± 0.0014 kPa
349.3 K, Transpiration method | 0.02026 ± 0.0014 kPa
351.3 K, Transpiration method | 0.02423 ± 0.0017 kPa
353.2 K, Transpiration method | 0.02884 ± 0.0021 kPa
353.3 K, Transpiration method | 0.02848 ± 0.0021 kPa
358.2 K, Transpiration method | 0.04134 ± 0.0029 kPa
434.53 K, Ebulliometric method (Recirculating still) | 2.17 ± 0.1 kPa
452.99 K, Ebulliometric method (Recirculating still) | 4.346 ± 0.1 kPa
467.03 K, Ebulliometric method (Recirculating still) | 7.152 ± 0.1 kPa
479.19 K, Ebulliometric method (Recirculating still) | 10.66 ± 0.1 kPa
486.79 K, Ebulliometric method (Recirculating still) | 13.5 ± 0.1 kPa
494.39 K, Ebulliometric method (Recirculating still) | 16.96 ± 0.1 kPa
501.93 K, Ebulliometric method (Recirculating still) | 21.07 ± 0.1 kPa
511.48 K, Ebulliometric method (Recirculating still) | 27.41 ± 0.1 kPa
519.96 K, Ebulliometric method (Recirculating still) | 34.27 ± 0.1 kPa
529.73 K, Ebulliometric method (Recirculating still) | 43.86 ± 0.1 kPa
539.88 K, Ebulliometric method (Recirculating still) | 56.03 ± 0.1 kPa
550.47 K, Ebulliometric method (Recirculating still) | 71.52 ± 0.11 kPa
562.29 K, Ebulliometric method (Recirculating still) | 92.61 ± 0.11 kPa
573.95 K, Ebulliometric method (Recirculating still) | 118.1 ± 0.11 kPa

Cc1ccc(-c2ccc(C)cc2)cc1 [4,4'-dimethylbiphenyl]
Crystal, Transpiration method
Settings | vapor or sublimation pressure [kPa]
334.2 K | 0.00389 ± 0.00029
339.3 K | 0.00638 ± 0.00046
343.2 K | 0.00955 ± 0.0007
349.2 K | 0.01668 ± 0.0012
353.7 K | 0.02516 ± 0.0018
354.6 K | 0.02591 ± 0.0018
358.8 K | 0.03834 ± 0.0028
363.7 K | 0.05681 ± 0.0041
368.7 K | 0.08722 ± 0.0063
374.5 K | 0.1474 ± 0.011
379.5 K | 0.2146 ± 0.015

CC(C)(C)c1cccc(-c2ccccc2)c1 [3-(1,1-dimethylethyl)-1,1'-biphenyl]
Liquid
Settings | vapor or sublimation pressure [kPa]
323 K, Transpiration method | 0.00191 ± 0.00014
325.9 K, Transpiration method | 0.00244 ± 0.00017
328.5 K, Transpiration method | 0.00298 ± 0.00021
331 K, Transpiration method | 0.00368 ± 0.00026
333.4 K, Transpiration method | 0.00447 ± 0.00032
335.3 K, Transpiration method | 0.00514 ± 0.00037
338.2 K, Transpiration method | 0.00653 ± 0.00047
340.8 K, Transpiration method | 0.00801 ± 0.00057
343.3 K, Transpiration method | 0.00917 ± 0.00065
345.5 K, Transpiration method | 0.0113 ± 0.00081
348.1 K, Transpiration method | 0.01363 ± 0.00097
350.7 K, Transpiration method | 0.01622 ± 0.0011
353.4 K, Transpiration method | 0.01957 ± 0.0014
356 K, Transpiration method | 0.02333 ± 0.0017
358.5 K, Transpiration method | 0.0282 ± 0.002
361.3 K, Transpiration method | 0.03303 ± 0.0023
440.79 K, Ebulliometric method (Recirculating still) | 2.117 ± 0.1
459.53 K, Ebulliometric method (Recirculating still) | 4.346 ± 0.1
473.75 K, Ebulliometric method (Recirculating still) | 7.152 ± 0.1
486.07 K, Ebulliometric method (Recirculating still) | 10.66 ± 0.1
493.76 K, Ebulliometric method (Recirculating still) | 13.5 ± 0.1
501.46 K, Ebulliometric method (Recirculating still) | 16.96 ± 0.1
509.1 K, Ebulliometric method (Recirculating still) | 21.07 ± 0.1
518.78 K, Ebulliometric method (Recirculating still) | 27.41 ± 0.1
527.38 K, Ebulliometric method (Recirculating still) | 34.27 ± 0.1
537.26 K, Ebulliometric method (Recirculating still) | 43.86 ± 0.1
547.55 K, Ebulliometric method (Recirculating still) | 56.03 ± 0.1
558.29 K, Ebulliometric method (Recirculating still) | 71.52 ± 0.11
570.25 K, Ebulliometric method (Recirculating still) | 92.61 ± 0.11
582 K, Ebulliometric method (Recirculating still) | 118.1 ± 0.11

Settings | Normal boiling temperature [°C]
Liquid, Ebulliometric method (Recirculating still) | 301.34 ± 0.2

Source: the NIST ThermoML archive (doi:10.1016/j.fluid.2012.08.020)
